# According to patent US7196090B2, “Kinase inhibitors” (Warner-Lambert Company, priority 2002, dated 2007):
row,melting point,Compound
1,200 to 220 °C (dec.),COc1cc(OC)c(F)c(N2Cc3cnc(N)nc3N(C3CCNCC3)C2=O)c1F.O=C(O)C(F)(F)F
2,135 to 140 °C,CNc1ncc2c(n1)N(C1CCNCC1)C(=O)N(c1c(F)c(OC)cc(OC)c1F)C2.O=C(O)C(F)(F)F
3,132 to 133 °C,"CCN(CC)CCCCNc1ncc2c(n1)N(C1CCCC1)C(=O)N(c1c(F)c(OC)cc(OC)c1F)C2 [Example 2, 1-Cyclopentyl-7-(4-diethylamino-butylamino)-3-(2,6-difluoro-3,5-dimethoxy-phenyl)-3,4-dihydro-1H-pyrimido[4,5-d]pyrimidin-2-one]"
4,160 °C (dec.),"COc1cc(OC)c(F)c(N2Cc3cnc(NC[C@H](O)[C@@H](O)CO)nc3N(C3CCCC3)C2=O)c1F [Example 4, (S,S)-1-Cyclopentyl-3-(2,6-difluoro-3,5-dimethoxy-phenyl)-7-(2,3,4-trihydroxy-butylamino)-3,4-dihydro-1H-pyrimido[4,5-d]pyrimidin-2-one]"
5,208 to 212 °C (dec.),"COc1cc(OC)c(F)c(N2Cc3cnc(NC4CCC(O)CC4)nc3N(C3CCCC3)C2=O)c1F (stereo not drawn) [Example 5, 1-Cyclopentyl-3-(2,6-difluoro-3,5-dimethoxy-phenyl)-7-(4-hydroxy-cyclohexylamino)-3,4-dihydro-1H-pyrimido[4,5-d]pyrimidin-2-one]"
6,172 to 174 °C,"COc1cc(OC)c(F)c(N2Cc3cnc(NC(CO)CO)nc3N(C3CCCC3)C2=O)c1F [Example 6, 1-Cyclopentyl-3-(2,6-difluoro-3,5-dimethoxy-phenyl)-7-(2-hydroxy-1-hydroxymethyl-ethylamino)-3,4-dihydro-1H-pyrimido[4,5-d]pyrimidin-2-one]"
7,167 °C (dec.),"COc1cc(OC)c(F)c(N2Cc3cnc(NCC(O)CN)nc3N(C3CCCC3)C2=O)c1F (stereo not drawn) [Example 7, 7-(3-Amino-2-hydroxy-propylamino)-1-cyclopentyl-3-(2,6-difluoro-3,5-dimethoxy-phenyl)-3,4-dihydro-1H-pyrimido[4,5-d]pyrimidin-2-one]"
8,160 to 163 °C,"COc1cc(OC)c(F)c(N2Cc3cnc(NCCOCCO)nc3N(C3CCCC3)C2=O)c1F [Example 8, 1-Cyclopentyl-3-(2,6-difluoro-3,5-dimethoxy-phenyl)-7-[2-(2-hydroxy-ethoxy)-ethylamino]-3,4-dihydro-1H-pyrimido[4,5-d]pyrimidin-2-one]"
9,139 to 141 °C,"CCN(CC)CCCCNc1ncc2c(n1)N(C1CC1)C(=O)N(c1c(F)c(OC)cc(OC)c1F)C2 [Example 9, 1-Cyclopropyl-7-(4-diethylamino-butylamino)-3-(2,6-difluoro-3,5-dimethoxy-phenyl)-3,4-dihydro-1H-pyrimido[4,5-d]pyrimidin-2-one]"
10,140 to 141 °C,"CCN(CC)CCCCNc1ncc2c(n1)N(CC)C(=O)N(c1c(F)c(OC)cc(OC)c1F)C2 [Example 10, 7-(4-Diethylamino-butylamino)-3-(2,6-difluoro-3,5-dimethoxy-phenyl)-1-ethyl-3,4-dihydro-1H-pyrimido[4,5-d]pyrimidin-2-one]"
11,168 to 172 °C,"CCN1C(=O)N(c2c(F)c(OC)cc(OC)c2F)Cc2cnc(NC(CO)CO)nc21 [Example 11, 3-(2,6-Difluoro-3,5-dimethoxy-phenyl)-1-ethyl-7-(2-hydroxy-1-hydroxymethyl-ethylamino)-3,4-dihydro-1H-pyrimido[4,5-d]pyrimidin-2-one]"
12,198 to 202 °C,"CCN1C(=O)N(c2c(F)c(OC)cc(OC)c2F)Cc2cnc(NC3CCC(O)CC3)nc21 (stereo not drawn) [Example 12, 3-(2,6-Difluoro-3,5-dimethoxy-phenyl)-1-ethyl-7-(4-hydroxy-cyclohexylamino)-3,4-dihydro-1H-pyrimido[4,5-d]pyrimidin-2-one]"
13,195 to 196 °C (dec.),"COc1cc(OC)c(F)c(N2Cc3cnc(NCC(O)C(C)O)nc3N(C3CCCC3)C2=O)c1F (stereo not drawn) [Example 13, 1-Cyclopentyl-3-(2,6-difluoro-3,5-dimethoxy-phenyl)-7-(2,3-dihydroxy-butylamino)-3,4-dihydro-1H-pyrimido[4,5-d]pyrimidin-2-one]"
14,118 to 122 °C,"COc1cc(OC)c(F)c(N2Cc3cnc(NCC(O)CO)nc3N(C3CCCC3)C2=O)c1F (stereo not drawn) [Example 14, 1-Cyclopentyl-3-(2,6-difluoro-3,5-dimethoxy-phenyl)-7-(2,3-dihydroxy-propylamino)-3,4-dihydro-1H-pyrimido[4,5-d]pyrimidin-2-one]"
15,158 °C (dec.),"COc1cc(OC)c(F)c(N2Cc3cnc(NCC(O)C(O)CN)nc3N(C3CCCC3)C2=O)c1F (stereo not drawn) [Example 15, 7-(4-Amino-2,3-dihydroxy-butylamino)-1-cyclopentyl-3-(2,6-difluoro-3,5-dimethoxy-phenyl)-3,4-dihydro-1H-pyrimido[4,5-d]pyrimidin-2-one]"
16,86 to 88 °C,"COc1cc(OC)c(F)c(N2Cc3cnc(NC[C@H](O)[C@@H](O)CO)nc3N(C3CCCC3)C2=O)c1 [Example 16, 1-Cyclopentyl-3-(2-fluoro-3,5-dimethoxy-phenyl)-7-([S,S]-2,3,4-trihydroxy-butylamino)-3,4-dihydro-1H-pyrimido[4,5-d]pyrimidin-2-one]"
17,159 to 160 °C,"CCN1C(=O)N(c2c(F)c(OC)cc(OC)c2F)Cc2cnc(NCCOCCO)nc21 [Example 17, 3-(2,6-Difluoro-3,5-dimethoxy-phenyl)-1-ethyl-7-[2-(2-hydroxy-ethoxy)-ethylamino]-3,4-dihydro-1H-pyrimido[4,5-d]pyrimidin-2-one]"
18,115 °C (dec.),"CCN1C(=O)N(c2c(F)c(OC)cc(OC)c2F)Cc2cnc(NCC(O)C(O)CN)nc21 (stereo not drawn) [Example 18, 7-(4-Amino-2,3-dihydroxy-butylamino)-3-(2,6-difluoro-3,5-dimethoxy-phenyl)-1-ethyl-3,4-dihydro-1H-pyrimido[4,5-d]pyrimidin-2-one]"
19,128 to 129 °C,"CCN1C(=O)N(c2c(F)c(OC)cc(OC)c2F)Cc2cnc(NCCCN(CCO)CCO)nc21 [Example 19, 7-{3-[Bis-(2-hydroxy-ethyl)-amino]-propylamino}-3-(2,6-difluoro-3,5-dimethoxy-phenyl)-1-ethyl-3,4-dihydro-1H-pyrimido[4,5-d]pyrimidin-2-one]"
20,179 to 182 °C,"COc1cc(OC)c(F)c(N2Cc3cnc(NCC(O)CO)nc3N(C3CCCC3)C2=O)c1F (stereo not drawn) [Example 20, 1-Cyclopentyl-3-(2,6-difluoro-3,5-dimethoxy-phenyl)-7-(2,3-dihydroxy-propylamino)-3,4-dihydro-1H-pyrimido[4,5-d]pyrimidin-2-one]"
21,171 to 173 °C,"CCN1C(=O)N(c2c(F)c(OC)cc(OC)c2F)Cc2cnc(NCC(O)C(C)O)nc21 (stereo not drawn) [Example 21, 3-(2,6-Difluoro-3,5-dimethoxy-phenyl)-7-(2,3-dihydroxy-butylamino)-1-ethyl-3,4-dihydro-1H-pyrimido[4,5-d]pyrimidin-2-one]"
22,148 °C,"CNc1ncc2c(n1)N(C1CCC(C(=O)O)CC1)C(=O)N(c1c(F)c(OC)cc(OC)c1F)C2 (stereo not drawn) [Example 23, 4-[3-(2,6-Difluoro-3,5-dimethoxy-phenyl)-7-methylamino-2-oxo-3,4-dihydro-2H-pyrimido[4,5-d]pyrimidin-1-yl]-cyclohexanecarboxylic Acid]"
23,194 to 195 °C,"COc1cc(OC)c(F)c(N2Cc3cnc(NC(CO)CO)nc3N(C3CCCC3)C2=O)c1 [Example 25, 1-Cyclopentyl-3-(2-fluoro-3,5-dimethoxy-phenyl)-7-(2-hydroxy-1-hydroxymethyl-ethylamino)-3,4-dihydro-1H-pyrimido[4,5-d]pyrimidin-2-one]"
24,129 to 131 °C,"CCN1C(=O)N(c2cc(OC)cc(OC)c2F)Cc2cnc(NCCCCO)nc21 [Example 26, 1-Ethyl-3-(2-fluoro-3,5-dimethoxy-phenyl)-7-(4-hydroxy-butylamino)-3,4-dihydro-1H-pyrimido[4,5-d]pyrimidin-2-one]"
25,92 to 94 °C,"COc1cc(OC)c(F)c(N2Cc3cnc(NC[C@H](O)CO)nc3N(C3CCCC3)C2=O)c1 [Example 27, (S)-1-Cyclopentyl-7-(2,3-dihydroxy-propylamino)-3-(2-fluoro-3,5-dimethoxy-phenyl)-3,4-dihydro-1H-pyrimido[4,5-d]pyrimidin-2-one]"
26,148 to 152 °C,"CCN1C(=O)N(c2c(F)c(OC)cc(OC)c2F)Cc2cnc(NCC(O)CO)nc21 (stereo not drawn) [Example 31, 3-(2,6-Difluoro-3,5-dimethoxy-phenyl)-7-(2,3-dihydroxy-propylamino)-1-ethyl-3,4-dihydro-1H-pyrimido[4,5-d]pyrimidin-2-one]"
27,129 to 130 °C,"CCOc1ccc(F)c(N2Cc3cnc(NCCCCN(CC)CC)nc3N(C3CCCC3)C2=O)c1F [Example 32, 1-Cyclopentyl-7-(4-diethylamino-butylamino)-3-(3-ethoxy-2,6-difluoro-phenyl)-3,4-dihydro-1H-pyrimido[4,5-d]pyrimidin-2-one]"
28,89 to 91 °C,"COc1cc(OC)c(F)c(N2Cc3cnc(NC[C@@H](O)CO)nc3N(C3CCCC3)C2=O)c1 [Example 33, (R)-1-Cyclopentyl-7-(2,3-dihydroxy-propylamino)-3-(2-fluoro-3,5-dimethoxy-phenyl)-3,4-dihydro-1H-pyrimido[4,5-d]pyrimidin-2-one]"
29,143 to 146 °C,"CCN1C(=O)N(c2cc(OC)cc(OC)c2F)Cc2cnc(NCCOCCO)nc21 [Example 34, 1-Ethyl-3-(2-fluoro-3,5-dimethoxy-phenyl)-7-[2-(2-hydroxy-ethoxy)-ethylamino]-3,4-dihydro-1H-pyrimido[4,5-d]pyrimidin-2-one]"
30,108 to 110 °C,"COc1cc(OC)c(F)c(N2Cc3cnc(N[C@H]4CC[C@H](O)CC4)nc3N(C3CCCC3)C2=O)c1 [Example 35, 1-Cyclopentyl-3-(2-fluoro-3,5-dimethoxy-phenyl)-7-(trans-4-hydroxy-cyclohexylamino)-3,4-dihydro-1H-pyrimido[4,5-d]pyrimidin-2-one]"
